From US20120178765A1, “NOVEL GLUCOKINASE ACTIVATORS AND PROCESSES FOR THE PREPARATION THEREOF” (YUHAN CORPORATION, priority 2009, published 2012)

Each compound was assayed against T1, Glucokinase (Homo sapiens, UniProt P35557) (assay: Glucokinase activation assay (NADPH absorbance at 340 nm)). Conditions: glucokinase (ProteinOne Inc.), 5 mM D(+)-glucose, 24° C., 90 minutes.
T1 construct: purchased ProteinOne Inc
T1 sequence (P35557 1-465): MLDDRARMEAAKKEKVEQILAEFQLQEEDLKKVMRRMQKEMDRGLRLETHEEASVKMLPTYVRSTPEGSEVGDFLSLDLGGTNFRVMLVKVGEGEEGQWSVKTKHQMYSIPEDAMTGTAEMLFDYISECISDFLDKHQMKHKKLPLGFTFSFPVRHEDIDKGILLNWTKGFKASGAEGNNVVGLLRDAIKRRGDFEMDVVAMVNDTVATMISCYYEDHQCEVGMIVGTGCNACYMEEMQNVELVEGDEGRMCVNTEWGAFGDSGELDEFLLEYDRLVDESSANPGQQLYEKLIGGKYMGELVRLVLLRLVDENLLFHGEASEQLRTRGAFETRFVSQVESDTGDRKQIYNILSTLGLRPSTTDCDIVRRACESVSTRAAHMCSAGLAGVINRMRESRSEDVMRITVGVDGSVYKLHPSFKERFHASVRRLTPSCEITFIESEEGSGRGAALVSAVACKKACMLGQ
Assay type: biochemical
Description: The amounts of glucokinase activation were determined by measuring the levels of NADPH (the final metabolite of glucose through glucokinase-mediated phospho-rylation) and then calculating to glucokinase activities.
Glucokinase (ProteinOne Inc.) was added, in the concentration of 100 ng/uL, to a enzyme-reaction medium (25 mM HEPES pH 7, 25 mM KCL, 1 mM MgCl, 5 mM D(+)-glucose, 1 mM ATP, 1 mM NADP, 1 mM DTT, and 2.5 u/mL G6PDH). Each compound in predetermined concentrations was added to the enzyme-reaction medium and then absorbance (First Absorbance) was measured at 340 nm of wavelength. After measuring the first absorbance, each reaction mixture was incubated at 24° C. for 90 minutes and then absorbance (Second Absorbance) was re-measured at 340 nm of wavelength. Using changes between First Absorbance and Second Absorbance, glucokinase activity was calculated. In the calculation, a maximum activity of the test compound (Emax), in comparison to the control group (no treatment of compound) was determined and then EC50 was calculated using the software for statistical analysis “Prism”, based on the activity-changes according to concentrations of the test compounds.
The amounts of glucokinase activation of the compounds of Comparative Examples 1 and 2 were determined, in accordance with the same procedures as in Test Example 1.

| Compound | EC50 [nM] |
| --- | --- |
| 3-[trans-2-(2,4-difluorophenyl)vinyl]-5-(2-methoxy-(1S)-methyl-ethoxy)-N-(thiazol-2-yl)-benzamide [Example 10] | 55.2 |
| 3-[trans-2-(3-chlorophenyl)vinyl]-5-(2-methoxy-(1S)-methyl-ethoxy)-N-(1-methyl-1H-pyrazol-3-yl)-benzamide [Example 47] | 107 |
| COC[C@H](C)Oc1cc(CCc2c(F)cccc2F)cc(C(=O)Nc2ccc(C(=O)O)cn2)c1 [Example 109, 3-[2-(2,6-difluorophenyl)ethyl]-5-(2-methoxy-(1S)-methyl-ethoxy)-N-(nicotinic acid-6-yl)-benzamide] | 208 |
| 3-[2-(3-chlorophenyl)ethyl]-5-(2-methoxy-(1S)-methyl-ethoxy)-N-(1-methyl-1H-pyrazol-3-yl)-benzamide [Example 102] | 264 |
| 3-[2-(2,3-dimethoxyphenyl)ethyl]-5-(2-methoxy-(1S)-methyl-ethoxy)-N-(thiazol-2-yl)-benzamide [Example 90] | 322 |
| 3-[trans-2-(3-fluorophenyl)vinyl]-5-(2-methoxy-(1S)-methyl-ethoxy)-N-(thiazol-2-yl)-benzamide [Example 7] | 48.4 |
| 3-[2-(2,4-dimethoxyphenyl)ethyl]-5-(2-methoxy-(1S)-methyl-ethoxy)-N-(pyrazin-2-yl)-benzamide [Example 105] | 298 |
| COC[C@H](C)Oc1cc(/C=C/c2cc(F)ccc2F)cc(C(=O)Nc2ccc(C(=O)OC)cn2)c1 [Example 68, 3-[trans-2-(2,5-difluorophenyl)vinyl]-5-(2-methoxy-(1S)-methyl-ethoxy)-N-(nicotinic acid-3-methyl ester-6-yl)-benzamide] | 355 |
| 3-[2-(2-methoxyphenyl)ethyl]-5-(2-methoxy-(1S)-methyl-ethoxy)-N-(thiazol-2-yl)-benzamide [Example 89] | 28.4 |
| 3-[trans-2-(4-fluorophenyl)vinyl]-5-(2-methoxy-(1S)-methyl-ethoxy)-N-(pyrazin-2-yl)-benzamide [Example 52] | 420 |
| 3-[2-(2-aminophenyl)ethyl]-5-(2-methoxy-(1S)-methyl-ethoxy)-N-(thiazol-2-yl)-benzamide [Example 88] | 108 |
| CCC(COC)Oc1cc(/C=C/c2ccc(F)cc2)cc(C(=O)Nc2nccs2)c1 (stereo not drawn) [Example 148, 3-[trans-2-(4-fluorophenyl)vinyl]-5-(1-methoxymethyl-propoxy)-N-(thiazol-2-yl)-benzamide] | 417 |
| 3-[2-(3,5-dimethoxyphenyl)ethyl]-5-(2-methoxy-(1S)-methyl-ethoxy)-N-(1-methyl-1H-pyrazol-3-yl)-benzamide [Example 99] | 117 |
| 3-[trans-2-(3-bromophenyl)vinyl]-5-(2-methoxy-(1S)-methyl-ethoxy)-N-(pyrazin-2-yl)-benzamide [Example 59] | 377 |
| 3-[2-(4-benzenesulfonylaminophenyl)ethyl]-5-(2-methoxy-(1S)-methyl-ethoxy)-N-(thiazol-2-yl)-benzamide [Example 144] | 411 |
| 3-[2-(4-fluorophenyl)ethyl]-5-(2-methoxy-(1S)-methyl-ethoxy)-N-(1-methyl-1H-pyrazol-3-yl)-benzamide [Example 98] | 216 |
| COC[C@H](C)Oc1cc(/C=C/c2ccccc2F)cc(C(=O)Nc2ccc(C(=O)OC)cn2)c1 [Example 64, 3-[trans-2-(2-fluorophenyl)vinyl]-5-(2-methoxy-(1S)-methyl-ethoxy)-N-(nicotinic acid-3-methyl ester-6-yl)-benzamide] | 159 |
| 3-[trans-2-(2,6-difluorophenyl)vinyl]-5-(2-methoxy-(1S)-methyl-ethoxy)-N-(pyrazin-2-yl)-benzamide [Example 58] | 212 |
| CC(C)COc1cc(/C=C/c2ccccc2[N+](=O)[O-])cc(C(=O)Nc2nccs2)c1 [Example 3, 3-[trans-2-(2-nitrophenyl)vinyl]-5-isobutoxy-N-(thiazol-2-yl)-benzamide] | 90.2 |
